Reference: patent publication US20250381179A1, “CHROMAN-BASED COMPOUNDS FOR TREATING CANCER” (priority 2024, published 2025)

Assay: Phase 1 study: safety and tolerability (TEAEs, NCI CTCAE v5.0)
Procedure: The study employed an open-label, 3+3 design, with the option of adding backfill patients to each cohort cleared and deemed safe. […] Tumor responses were assessed every 2 cycles using RECIST v1.1 criteria. […] The study also involves an ongoing dose escalation study where participants receive 100 mg, 200 mg, 300 mg, 400 mg, and 600 mg once daily (QD) dose levels.
Safety was assessed through the analysis of the reported incidence of treatment-emergent AEs. Treatment-emergent AEs are those with an onset on or after the initiation of therapy and will be graded according to NCI CTCAE Version 5.0. Other safety endpoints, including laboratory results, vital signs, and ECG findings, were summarized for all patients in the Safety set.

SMILES: O=C1CC[C@H](N2Cc3cc(N4CCN(CC5CCN(c6ccc([C@@H]7c8ccc(O)cc8OC[C@@H]7c7ccccc7)cc6F)CC5)CC4)ccc3C2=O)C(=O)N1 [compound (1-g), (S)-3-(5-(4-((1-(2-fluoro-4-((3S,4R)-7-hydroxy-3-phenylchroman-4-yl)phenyl)piperidin-4-yl)methyl)piperazin-1-yl)-1-oxoisoindolin-2-yl)piperidine-2,6-dione]
- Patients with Any Compound (1-g) related TEAE (100 mg QD (N = 4)): 2 (50.0) n (%)
- Patients with Any TEAE (100 mg QD (N = 4)): 4 (100) n (%)
- TEAE: Abdominal Distension (100 mg QD (N = 4)): 0 n (%)
- TEAE: Abdominal Pain (100 mg QD (N = 4)): 1 (25.0) n (%)
- TEAE: Acute Kidney Injury (100 mg QD (N = 4)): 0 n (%)
- TEAE: Adrenal Insufficiency (100 mg QD (N = 4)): 0 n (%)
- TEAE: Alopecia (100 mg QD (N = 4)): 0 n (%)
- TEAE: Anaemia (100 mg QD (N = 4)): 0 n (%)
- TEAE: Anxiety (100 mg QD (N = 4)): 0 n (%)
- TEAE: Arthralgia (100 mg QD (N = 4)): 0 n (%)
- TEAE: Axillary Vein Thrombosis (100 mg QD (N = 4)): 0 n (%)
- TEAE: Back Pain (100 mg QD (N = 4)): 0 n (%)
- TEAE: Basal Cell Carcinoma (100 mg QD (N = 4)): 1 (25.0) n (%)
- TEAE: Breast Pain (100 mg QD (N = 4)): 0 n (%)
- TEAE: Confusional State (100 mg QD (N = 4)): 1 (25.0) n (%)
- TEAE: Constipation (100 mg QD (N = 4)): 0 n (%)
- TEAE: Cough (100 mg QD (N = 4)): 0 n (%)
- TEAE: Covid-19 Pneumonia (100 mg QD (N = 4)): 1 (25.0) n (%)
- TEAE: Dehydration (100 mg QD (N = 4)): 3 (75.0) n (%)
- TEAE: Diarrhoea (100 mg QD (N = 4)): 1 (25.0) n (%)
- TEAE: Dizziness (100 mg QD (N = 4)): 0 n (%)
- TEAE: Dysgeusia (100 mg QD (N = 4)): 0 n (%)
- TEAE: Dyspepsia (100 mg QD (N = 4)): 1 (25.0) n (%)
- TEAE: Dyspnoea (100 mg QD (N = 4)): 0 n (%)
- TEAE: Dysuria (100 mg QD (N = 4)): 0 n (%)
- TEAE: Eructation (100 mg QD (N = 4)): 0 n (%)
- TEAE: Fall (100 mg QD (N = 4)): 1 (25.0) n (%)
- TEAE: Fatigue (100 mg QD (N = 4)): 1 (25.0) n (%)
- TEAE: Flatulence (100 mg QD (N = 4)): 0 n (%)
- TEAE: Fracture (100 mg QD (N = 4)): 0 n (%)
- TEAE: Fungal Infection (100 mg QD (N = 4)): 0 n (%)
- TEAE: Haematoma (100 mg QD (N = 4)): 0 n (%)
- TEAE: Hot Flush (100 mg QD (N = 4)): 1 (25.0) n (%)
- TEAE: Hyperglycaemia (100 mg QD (N = 4)): 0 n (%)
- TEAE: Hyperhidrosis (100 mg QD (N = 4)): 1 (25.0) n (%)
- TEAE: Hypokalaemia (100 mg QD (N = 4)): 0 n (%)
- TEAE: Hypotension (100 mg QD (N = 4)): 0 n (%)
- TEAE: Influenza Like Illness (100 mg QD (N = 4)): 0 n (%)
- TEAE: Insomnia (100 mg QD (N = 4)): 1 (25.0) n (%)
- TEAE: Lower Respiratory Tract Congestion (100 mg QD (N = 4)): 0 n (%)
- TEAE: Lymphocyte Count Decreased (100 mg QD (N = 4)): 0 n (%)
- TEAE: Muscle Spasm (100 mg QD (N = 4)): 0 n (%)
- TEAE: Muscular Weakness (100 mg QD (N = 4)): 0 n (%)
- TEAE: Musculoskeletal Stiffness (100 mg QD (N = 4)): 0 n (%)
- TEAE: Nail Disorder (100 mg QD (N = 4)): 0 n (%)
- TEAE: Nasal Congestion (100 mg QD (N = 4)): 0 n (%)
- TEAE: Nausea (100 mg QD (N = 4)): 1 (25.0) n (%)
- TEAE: Neutrophil Count Decreased (100 mg QD (N = 4)): 1 (25.0) n (%)
- TEAE: Oedema Peripheral (100 mg QD (N = 4)): 0 n (%)
- TEAE: Ophthalmic Migraine (100 mg QD (N = 4)): 0 n (%)
- TEAE: Oral Pain (100 mg QD (N = 4)): 0 n (%)
- TEAE: Pain In Extremity (100 mg QD (N = 4)): 0 n (%)
- TEAE: Pharyngitis (100 mg QD (N = 4)): 0 n (%)
- TEAE: Platelet Count Decreased (100 mg QD (N = 4)): 0 n (%)
- TEAE: Pleural Effusion (100 mg QD (N = 4)): 0 n (%)
- TEAE: Pneumonia (100 mg QD (N = 4)): 1 (25.0) n (%)
- TEAE: Productive Cough (100 mg QD (N = 4)): 0 n (%)
- TEAE: Rash Maculo-Papular (100 mg QD (N = 4)): 1 (25.0) n (%)
- TEAE: Rhinitis Allergic (100 mg QD (N = 4)): 0 n (%)
- TEAE: Rib Fracture (100 mg QD (N = 4)): 1 (25.0) n (%)
- TEAE: Seizure (100 mg QD (N = 4)): 0 n (%)
- TEAE: Sepsis (100 mg QD (N = 4)): 0 n (%)
- TEAE: Tremor (100 mg QD (N = 4)): 1 (25.0) n (%)
- TEAE: Upper Respiratory Tract Infection (100 mg QD (N = 4)): 1 (25.0) n (%)
- TEAE: Urinary Tract Infection (100 mg QD (N = 4)): 0 n (%)
- TEAE: Vaginal Haemorrhage (100 mg QD (N = 4)): 0 n (%)
- TEAE: Vomiting (100 mg QD (N = 4)): 0 n (%)
- related TEAE: Alopecia (100 mg QD (N = 4)): 0 n (%)
- related TEAE: Arthralgia (100 mg QD (N = 4)): 0 n (%)
- related TEAE: Constipation (100 mg QD (N = 4)): 0 n (%)
- related TEAE: Diarrhea (100 mg QD (N = 4)): 1 (25.0) n (%)
- related TEAE: Dysgeusia (100 mg QD (N = 4)): 0 n (%)
- related TEAE: Eructation (100 mg QD (N = 4)): 0 n (%)
- related TEAE: Fatigue (100 mg QD (N = 4)): 0 n (%)
- related TEAE: Flatulence (100 mg QD (N = 4)): 0 n (%)
- related TEAE: Hot Flush (100 mg QD (N = 4)): 1 (25.0) n (%)
- related TEAE: Hyperhidrosis (100 mg QD (N = 4)): 0 n (%)
- related TEAE: Nail Disorder (100 mg QD (N = 4)): 0 n (%)
- related TEAE: Nausea (100 mg QD (N = 4)): 1 (25.0) n (%)
- related TEAE: Neutrophil Count Decreased (100 mg QD (N = 4)): 1 (25.0) n (%)
- related TEAE: Platelet Count Decreased (100 mg QD (N = 4)): 0 n (%)
- related TEAE: Tremor (100 mg QD (N = 4)): 1 (25.0) n (%)
- related TEAE: Vomiting (100 mg QD (N = 4)): 0 n (%)
- Patients with Any Compound (1-g) related TEAE (200 mg QD (N = 12)): 3 (25.0) n (%)
- Patients with Any TEAE (200 mg QD (N = 12)): 11 (91.7) n (%)
- TEAE: Abdominal Distension (200 mg QD (N = 12)): 0 n (%)
- TEAE: Abdominal Pain (200 mg QD (N = 12)): 1 (8.3) n (%)
- TEAE: Acute Kidney Injury (200 mg QD (N = 12)): 0 n (%)
- TEAE: Adrenal Insufficiency (200 mg QD (N = 12)): 1 (8.3) n (%)
- TEAE: Alopecia (200 mg QD (N = 12)): 0 n (%)
- TEAE: Anaemia (200 mg QD (N = 12)): 1 (8.3) n (%)
- TEAE: Anxiety (200 mg QD (N = 12)): 0 n (%)
- TEAE: Arthralgia (200 mg QD (N = 12)): 2 (16.7) n (%)
- TEAE: Axillary Vein Thrombosis (200 mg QD (N = 12)): 1 (8.3) n (%)
- TEAE: Back Pain (200 mg QD (N = 12)): 1 (8.3) n (%)
- TEAE: Basal Cell Carcinoma (200 mg QD (N = 12)): 0 n (%)
- TEAE: Breast Pain (200 mg QD (N = 12)): 1 (8.3) n (%)
- TEAE: Confusional State (200 mg QD (N = 12)): 0 n (%)
- TEAE: Constipation (200 mg QD (N = 12)): 1 (8.3) n (%)
- TEAE: Cough (200 mg QD (N = 12)): 1 (8.3) n (%)
- TEAE: Covid-19 Pneumonia (200 mg QD (N = 12)): 0 n (%)
- TEAE: Dehydration (200 mg QD (N = 12)): 1 (8.3) n (%)
- TEAE: Diarrhoea (200 mg QD (N = 12)): 0 n (%)
- TEAE: Dizziness (200 mg QD (N = 12)): 0 n (%)
- TEAE: Dysgeusia (200 mg QD (N = 12)): 0 n (%)
- TEAE: Dyspepsia (200 mg QD (N = 12)): 0 n (%)
- TEAE: Dyspnoea (200 mg QD (N = 12)): 1 (8.3) n (%)
- TEAE: Dysuria (200 mg QD (N = 12)): 1 (8.3) n (%)
- TEAE: Eructation (200 mg QD (N = 12)): 0 n (%)
- TEAE: Fall (200 mg QD (N = 12)): 1 (8.3) n (%)
- TEAE: Fatigue (200 mg QD (N = 12)): 2 (16.7) n (%)
- TEAE: Flatulence (200 mg QD (N = 12)): 0 n (%)
- TEAE: Fracture (200 mg QD (N = 12)): 1 (8.3) n (%)
- TEAE: Fungal Infection (200 mg QD (N = 12)): 0 n (%)
- TEAE: Haematoma (200 mg QD (N = 12)): 0 n (%)
- TEAE: Hot Flush (200 mg QD (N = 12)): 1 (8.3) n (%)
- TEAE: Hyperglycaemia (200 mg QD (N = 12)): 1 (8.3) n (%)
- TEAE: Hyperhidrosis (200 mg QD (N = 12)): 1 (8.3) n (%)
- TEAE: Hypokalaemia (200 mg QD (N = 12)): 1 (8.3) n (%)
- TEAE: Hypotension (200 mg QD (N = 12)): 0 n (%)
- TEAE: Influenza Like Illness (200 mg QD (N = 12)): 1 (8.3) n (%)
- TEAE: Insomnia (200 mg QD (N = 12)): 1 (8.3) n (%)
- TEAE: Lower Respiratory Tract Congestion (200 mg QD (N = 12)): 1 (8.3) n (%)
- TEAE: Lymphocyte Count Decreased (200 mg QD (N = 12)): 1 (8.3) n (%)
- TEAE: Muscle Spasm (200 mg QD (N = 12)): 0 n (%)
- TEAE: Muscular Weakness (200 mg QD (N = 12)): 1 (8.3) n (%)
- TEAE: Musculoskeletal Stiffness (200 mg QD (N = 12)): 1 (8.3) n (%)
- TEAE: Nail Disorder (200 mg QD (N = 12)): 0 n (%)
- TEAE: Nasal Congestion (200 mg QD (N = 12)): 1 (8.3) n (%)
- TEAE: Nausea (200 mg QD (N = 12)): 1 (8.3) n (%)
- TEAE: Neutrophil Count Decreased (200 mg QD (N = 12)): 1 (8.3) n (%)
- TEAE: Oedema Peripheral (200 mg QD (N = 12)): 0 n (%)
- TEAE: Ophthalmic Migraine (200 mg QD (N = 12)): 1 (8.3) n (%)
- TEAE: Oral Pain (200 mg QD (N = 12)): 0 n (%)
- TEAE: Pain In Extremity (200 mg QD (N = 12)): 1 (8.3) n (%)
- TEAE: Pharyngitis (200 mg QD (N = 12)): 1 (8.3) n (%)
- TEAE: Platelet Count Decreased (200 mg QD (N = 12)): 0 n (%)
- TEAE: Pleural Effusion (200 mg QD (N = 12)): 0 n (%)
- TEAE: Pneumonia (200 mg QD (N = 12)): 1 (8.3) n (%)
- TEAE: Productive Cough (200 mg QD (N = 12)): 1 (8.3) n (%)
- TEAE: Rash Maculo-Papular (200 mg QD (N = 12)): 1 (8.3) n (%)
- TEAE: Rhinitis Allergic (200 mg QD (N = 12)): 0 n (%)
- TEAE: Rib Fracture (200 mg QD (N = 12)): 0 n (%)
- TEAE: Seizure (200 mg QD (N = 12)): 1 (8.3) n (%)
- TEAE: Sepsis (200 mg QD (N = 12)): 1 (8.3) n (%)
- TEAE: Tremor (200 mg QD (N = 12)): 0 n (%)
- TEAE: Upper Respiratory Tract Infection (200 mg QD (N = 12)): 1 (8.3) n (%)
